# Results: patent US6043385A, “Vitamin D derivatives” (priority 1997, dated 2000)
# pEC50: −log10 of the molar value.
# Columns and labels:
# [1] = Calcium liability (tolerance test in mice); settings: mouse, in vivo, sc, daily s.c. for 4 consecutive days, dose without weight loss / with zero weight gain, read-out: HTD sc, mouse (highest tolerated subcutaneous dose)
# Source text: 1. Calcium liability (tolerance test in mice):
# This test gives a global picture of calcemic liability. Profound changes in calcium homeostasis strongly affect the weight development of the animals. This parameter was used as a primary test for tolerance. Mice (25-30 g body weight) received daily subcutaneous administrations of the vitamin D derivative for 4 consecutive days. Body weight was registered just before and at the end of a […] treatment period. The "highest tolerated dose" (HTDsc) in mice is the dose which results in zero weight gain during this treatment period.
# HTDsc: highest tolerated subcutaneous dose (μg/kg) without weight loss
# [2] = molecular target: T1, human VDR (Homo sapiens, UniProt P11473); assay: Vitamin D receptor activation (VDR), transcription activation assay in COS cells; type: cell-based; settings: for pEC50: COS cells cotransfected with human VDR and VDRE3-luciferase reporter, read-out: VDR act. (ED50, nanomolar); for HTD/VDR: ratio HTDsc (mouse, μg/kg) / VDR ED50 (nanomolar); for TI shift (HTD/VDR of test compound divided by HTD/VDR of calcitriol): vs calcitriol
# T1 construct: expressed in transfected cells; host or cells: COS cells, human VDR in pSG5
# T1 sequence (P11473 1-427): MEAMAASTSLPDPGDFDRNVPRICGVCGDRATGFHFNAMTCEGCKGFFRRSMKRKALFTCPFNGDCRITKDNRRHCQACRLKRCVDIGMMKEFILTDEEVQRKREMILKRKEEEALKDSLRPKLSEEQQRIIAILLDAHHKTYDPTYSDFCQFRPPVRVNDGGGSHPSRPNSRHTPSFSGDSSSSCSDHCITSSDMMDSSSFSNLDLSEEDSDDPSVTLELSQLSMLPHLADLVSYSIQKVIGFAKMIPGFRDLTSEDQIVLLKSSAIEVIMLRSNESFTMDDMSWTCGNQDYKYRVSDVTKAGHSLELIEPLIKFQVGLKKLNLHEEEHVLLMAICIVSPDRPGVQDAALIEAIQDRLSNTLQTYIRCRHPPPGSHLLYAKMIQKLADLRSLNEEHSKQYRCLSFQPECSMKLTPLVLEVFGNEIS
# Source text: 2. Vitamin D receptor activation (VDR)
# In order to measure the activation of the vitamin D receptor (VDR) by vitamin D analogs in cells a transcription activation assay was used. COS cells were cotransfected with the human VDR (expressed in pSG5) and a reporter gene containing three response elements (VDRE3) from the rat osteocalcine gene, the thymidine kinase basal promoter, and the luciferase reporter gene, respectively.
# TI shift: shift in "therapeutic index", defined as the ratio HTD/VDR of
# the test compound divided by the ratio HTD/VDR of calcitriol. These
# [3] = tested on: Epidermal proliferation in minipigs; assay: The pig model: epidermal proliferation in minipigs; settings: for TI (ratio Calc./Eff.): calcemic dose / effective dose, 10080 min; for Calcemic dose / Effective dose: seven days; for Effective dose: dose that increases the normal LI at least 50%
# [4] = The mouse model: epidermal thickening (acanthosis) in hairless mice; settings: mouse, in vivo, po
# [5] = tested on: Epidermal thickening (acanthosis) in hairless mice; assay: as above; settings: for ED50: Mus musculus, po, read-out: ED50: dose causing halfmaximal epidermal thickening; for ratio (TI) HTD/ED50 / TI shift (HTD/ED50 of test compound divided by HTD/ED50 of calcitriol): hairless mice, oral; for ratio (TI) HTD/ED50: HTDpo/ED50; for TI shift (HTD/ED50 of test compound divided by HTD/ED50 of calcitriol): vs calcitriol
SMILES,MTD [1] [µg/kg],pEC50 [2],HTD/VDR [2],TI shift (HTD/VDR of test compound divided by HTD/VDR of calcitriol) [2],TI (ratio Calc./Eff.) [3],Calcemic dose [3] [µg/kg],Effective dose [3] [µg/kg],MTD [4] [µg/kg],ED50 [5] [µg/kg],ratio (TI) HTD/ED50 [5],TI shift (HTD/ED50 of test compound divided by HTD/ED50 of calcitriol) [5],hyperproliferation (in words) ([3]; up to 9 times the dose that induces hypercalcemia)
"C=C1/C(=C\C=C2/CCC[C@]3(C)[C@@H]([C@H](C)CNC(=O)CC(C)(O)C(F)(F)F)CC[C@@H]23)C[C@@H](O)C[C@@H]1O (mixture of isomers) [D, 1:1 Mixture of [(5Z,7E)--(R)-- and (S)--N--[(1S,3R,20S)-1,3-dihydroxy-20-methyl-9,10-seco-pregna-5,7,10(19)-trien-21-yl]-4,4,4-trifluoro-3-hydroxy-3-methyl-butyramide]",10,8.80,6.3,33,,,,,,,,
"C=C1/C(=C/C=C2\CCC[C@]3(C)[C@@H]([C@H](C)CNC(=O)CC(C)(O)C(F)(F)F)CC[C@@H]23)C[C@@H](O)C[C@@H]1O (mixture of isomers) [I, 1:1 Mixture of --[(5E,7E)--(R)-- and --(S)-4,4,4-trifluoro-3-hydroxy-N--[(1S,3R,20S)-1,3-dihydroxy-20-methyl-9,10-seco-pregna-5,7,10(19)-trien-21-yl]-3-methyl-butyramide]",130,7.40,3.3,17,,,,,,,,
"C[C@H](CNC(=O)CC(C)(O)C(F)(F)F)[C@H]1CC[C@H]2/C(=C/C=C3C[C@@H](O)C[C@H](O)C3)CCC[C@]12C (mixture of isomers) [compound B, 1:1 Mixture of (E)--(R)-- and (S)--N--[(1R,3R,20S)-1,3-dihydroxy-20-methyl-19-nor-9,10-seco-pregna-5,7-dien-21-yl]-4,4,4-trifluoro-3-hydroxy-20-methyl-butyramide]",45,8.77,26.5,139,10,5,0.5,20,80,0.25,125,
"C[C@@H](CNC(=O)CC(C)(O)C(F)(F)F)[C@H]1CC[C@H]2/C(=C/C=C3C[C@@H](O)C[C@H](O)C3)CCC[C@]12C (mixture of isomers) [compound E, 1:1 Mixture of (E)--(R)-- and (S)--N--[(1R,3R,20R)-1,3-dihydroxy-20-methyl-19-nor-9,10-seco-pregna-5,7-dien-21-yl]-4,4,4-trifluoro-3-hydroxy-3-methyl-butyramide]",1,9.46,2.9,15,,,,,,,,
"C[C@H](CNC(=O)CC(O)(C(F)(F)F)C(F)(F)F)[C@H]1CC[C@H]2/C(=C/C=C3C[C@@H](O)C[C@H](O)C3)CCC[C@]12C [A, (E)--(1R,3R,20S)--N-(1,3-Dihydroxy-20-methyl-19-nor-9,10-seco-pregna-5,7-dien-21-yl)-4,4,4-trifluoro-3-hydroxy-3-trifluoromethyl-butyramide]",3,9.33,6.4,34,,,,,,,,
"C[C@H](CNC(=O)C(C)(C)O)[C@H]1CC[C@H]2/C(=C/C=C3C[C@@H](O)C[C@H](O)C3)CCC[C@]12C [C, (E)--(1R,3R,20S)--N-(1,3-Dihydroxy-20-methyl-19-nor-9,10-seco-pregna-5,7-dien-21-yl)-2-hydroxy-2-methyl-propionamide]",400,8.19,62.5,329,,,,,,,,
"C=C1/C(=C\C=C2/CCC[C@]3(C)[C@@H]([C@H](C)CCCC(C)(C)O)CC[C@@H]23)C[C@@H](O)C[C@@H]1O [Calcitriol, reference compound]",,,,,,3,> 22.5,1,500,,,did not induce hyperproliferation even at highly toxic does (9 times the dose that induces hypercalcemia)
"C[C@H](CNC(=O)C[C@@](C)(O)C(F)(F)F)[C@H]1CCC[C@H]2/C(=C/C=C3C[C@@H](O)C[C@H](O)C3)CCC[C@]12C [F, (E)--(R)--N--[(1R,3R,20S)-1,3-Dihydroxy-17a,20a-dihomo-19-nor-9,10-seco-pregna-5,7-dien-21-yl]-4,4,4-trifluoro-3-hydroxy-3-methyl-butyramide]",5,9.22,8.3,44,,,,,,,,
"C[C@H](CNC(=O)C[C@](C)(O)C(F)(F)F)[C@H]1CCC[C@H]2/C(=C/C=C3C[C@@H](O)C[C@H](O)C3)CCC[C@]12C [G, (E)--(S)--N--[(1R,3R,20S)-1,3-Dihydroxy-17a,20a-dihomo-19-nor-9,10-seco-pregna-5,7-dien-21-yl]-4,4,4-trifluoro-3-hydroxy-3-methyl-butyramide]",4.5,9.74,25,132,,,,,,,,
"C[C@H](CNC(=O)CC(O)(C(F)(F)F)C(F)(F)F)[C@H]1CCC[C@H]2/C(=C/C=C3C[C@@H](O)C[C@H](O)C3)CCC[C@]12C [H, (E)--N--[(1R,3R,20S)-1,3-Dihydroxy-17a,20a-dihomo-19-nor-9,10-seco-pregna-5,7-dien-21-yl]-4,4,4-trifluoro-3-trifluoromethyl-3-hydroxy-butyramide]",2.3,9.30,4.6,24,,,,,,,,
"C[C@H](CNC(=O)C[C@@](C)(O)C(F)(F)F)[C@H]1CC[C@H]2/C(=C/C=C3C[C@@H](O)C[C@H](O)C3)CCC[C@]12C [compound J, E--(R)--N--[(1R,3R,20S)-1,3-Dihydroxy-20-methyl-19-nor-9,10-seco-pregna-5,7-dien-21-yl]-4,4,4-trifluoro-3-hydroxy-3-methyl-butyramide]",22,8.68,10.5,55,29,5,0.17,8,50,0.16,80,
